{"source": "ChEMBL document CHEMBL1148868", "about": "“Isoform selective inhibition of STAT1 or STAT3 homo-dimerization via peptidomimetic probes: structural recognition of STAT SH2 domains” (Bioorg Med Chem Lett, 2007)", "key": {"[1]": {"biological_target": "T1, Signal transducer and activator of transcription 1-alpha/beta (Homo sapiens, UniProt P42224)", "T1 sequence (P42224 whole entry)": "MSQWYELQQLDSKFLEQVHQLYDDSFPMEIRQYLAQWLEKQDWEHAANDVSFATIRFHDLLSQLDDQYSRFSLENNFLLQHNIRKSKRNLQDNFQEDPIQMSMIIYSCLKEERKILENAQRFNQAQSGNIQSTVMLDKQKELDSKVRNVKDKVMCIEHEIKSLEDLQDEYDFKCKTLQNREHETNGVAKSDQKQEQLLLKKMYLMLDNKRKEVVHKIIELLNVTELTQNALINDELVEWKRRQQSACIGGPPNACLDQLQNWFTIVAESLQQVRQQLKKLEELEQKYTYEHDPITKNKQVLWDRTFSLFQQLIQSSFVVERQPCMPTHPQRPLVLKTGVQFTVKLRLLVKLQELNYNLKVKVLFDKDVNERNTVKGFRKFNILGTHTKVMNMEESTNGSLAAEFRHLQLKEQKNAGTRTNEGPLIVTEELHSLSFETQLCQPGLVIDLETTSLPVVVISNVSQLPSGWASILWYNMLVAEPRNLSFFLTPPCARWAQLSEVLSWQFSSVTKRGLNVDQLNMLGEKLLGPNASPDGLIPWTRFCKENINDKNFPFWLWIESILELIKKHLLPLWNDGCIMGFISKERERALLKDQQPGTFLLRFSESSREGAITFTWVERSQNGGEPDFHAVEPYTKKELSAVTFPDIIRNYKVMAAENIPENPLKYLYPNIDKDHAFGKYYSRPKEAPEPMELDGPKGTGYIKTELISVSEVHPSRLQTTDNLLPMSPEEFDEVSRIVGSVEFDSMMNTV", "test": "(§1) Inhibition of STAT1 dimer DNA binding activity after 30 mins", "format": "functional"}, "[2]": {"biological_target": "Signal transducer and activator of transcription 3 (Homo sapiens, UniProt P40763)", "sequence (P40763 whole entry)": "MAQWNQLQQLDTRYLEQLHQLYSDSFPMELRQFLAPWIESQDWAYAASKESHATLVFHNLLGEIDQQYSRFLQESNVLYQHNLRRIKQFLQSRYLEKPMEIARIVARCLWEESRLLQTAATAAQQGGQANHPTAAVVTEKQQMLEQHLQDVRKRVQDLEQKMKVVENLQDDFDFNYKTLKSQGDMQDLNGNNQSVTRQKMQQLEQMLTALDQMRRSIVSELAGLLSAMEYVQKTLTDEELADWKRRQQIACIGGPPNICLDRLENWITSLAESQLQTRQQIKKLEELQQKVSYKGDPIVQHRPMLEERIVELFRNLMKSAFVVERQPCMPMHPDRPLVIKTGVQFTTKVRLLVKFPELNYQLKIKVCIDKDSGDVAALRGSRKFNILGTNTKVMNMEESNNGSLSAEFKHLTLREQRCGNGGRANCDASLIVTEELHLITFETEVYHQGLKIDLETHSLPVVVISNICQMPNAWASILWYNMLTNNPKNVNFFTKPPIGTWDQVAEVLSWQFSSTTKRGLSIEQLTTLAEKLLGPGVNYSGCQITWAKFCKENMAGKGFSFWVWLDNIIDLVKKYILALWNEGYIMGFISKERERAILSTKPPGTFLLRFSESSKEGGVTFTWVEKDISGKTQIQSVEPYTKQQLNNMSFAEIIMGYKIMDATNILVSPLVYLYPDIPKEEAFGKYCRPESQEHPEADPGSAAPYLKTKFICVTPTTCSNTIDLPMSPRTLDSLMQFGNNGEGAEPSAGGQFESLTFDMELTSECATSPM", "test": "Inhibition of STAT3 dimer DNA binding activity after 30 mins"}, "[3]": {"biological_target": "T2, Signal transducer and activator of transcription 1-alpha/beta (Homo sapiens) (UniProt P42224)", "T2 sequence (whole entry)": "T1 sequence (P42224 whole entry)", "test": "as §1", "format": "functional"}}, "note": "pIC50: −log10 of the molar value. Active and inactive are the calls of the source. The rule behind the calls is not given here."}
{"smiles": "CC(C)C[C@H](NC(=O)[C@H](Cc1ccc(OP(=O)(O)O)cc1)NC(=O)c1ccc(C#N)cc1)C(=O)NCCCO", "values": [{"measurement": "pIC50", "setting": "[1]", "value": 3.68}, {"measurement": "pIC50", "setting": "[2]", "value": 3.21}]}
{"smiles": "CC(C)CNC(=O)[C@H](CC(C)C)NC(=O)[C@H](Cc1ccc(OP(=O)(O)O)cc1)NC(=O)c1ccc(C#N)cc1", "note": "(stereo in doubt; form 2)", "values": [{"measurement": "pIC50", "setting": "[1]", "value": 3.60}, {"measurement": "pIC50", "setting": "[2]", "value": 4.13}]}
{"smiles": "CC(C)C[C@H](NC(=O)[C@H](Cc1ccc(OP(=O)(O)O)cc1)NC(=O)c1ccc(C#N)cc1)C(=O)NC1CCCCC1", "values": [{"measurement": "pIC50", "setting": "[1]", "value": 3.22}, {"measurement": "pIC50", "setting": "[2]", "value": 4.24}]}
{"smiles": "COC(=O)[C@H](CC(C)C)NC(=O)[C@H](Cc1ccc(OP(=O)(O)O)cc1)NC(=O)c1ccc(C#N)cc1", "values": [{"measurement": "Activity", "setting": "[3]", "value": "inactive"}, {"measurement": "Activity", "setting": "[2]", "value": "inactive"}]}
{"smiles": "CC(C)C[C@H](NC(=O)[C@H](Cc1ccc(OP(=O)(O)O)cc1)NC(=O)c1ccc(C#N)cc1)C(=O)NCc1ccccc1", "values": [{"measurement": "pIC50", "setting": "[1]", "value": 3.12}, {"measurement": "pIC50", "setting": "[2]", "value": 3.10}]}
{"smiles": "COc1cccc(NC(=O)[C@H](CC(C)C)NC(=O)[C@H](Cc2ccc(OP(=O)(O)O)cc2)NC(=O)c2ccc(C#N)cc2)c1", "values": [{"measurement": "pIC50", "setting": "[1]", "value": 3.25}, {"measurement": "pIC50", "setting": "[2]", "value": 4.51}]}
{"smiles": "Cc1cccc(NC(=O)[C@H](CC(C)C)NC(=O)[C@H](Cc2ccc(OP(=O)(O)O)cc2)NC(=O)c2ccc(C#N)cc2)c1", "values": [{"measurement": "Activity", "setting": "[3]", "value": "inactive"}, {"measurement": "Activity", "setting": "[2]", "value": "inactive"}]}
{"smiles": "CC(C)C[C@H](NC(=O)[C@H](Cc1ccc(OP(=O)(O)O)cc1)NC(=O)c1ccc(C#N)cc1)C(=O)Nc1ccccc1", "values": [{"measurement": "pIC50", "setting": "[1]", "value": 3.42}, {"measurement": "pIC50", "setting": "[2]", "value": 3.51}]}
{"smiles": "CC(C)CNC(=O)[C@H](CC(C)C)NC(=O)[C@H](Cc1ccc(OP(=O)(O)O)cc1)NC(=O)c1ccc(C#N)cc1", "note": "(stereo in doubt; form 1)", "values": [{"measurement": "pIC50", "setting": "[1]", "value": 3.12}, {"measurement": "pIC50", "setting": "[2]", "value": 4.24}]}
{"smiles": "CC(C)C[C@H](NC(=O)[C@H](Cc1ccc(OP(=O)(O)O)cc1)NC(=O)c1ccc(C#N)cc1)C(=O)NCc1cccnc1", "values": [{"measurement": "Activity", "setting": "[3]", "value": "inactive"}, {"measurement": "Activity", "setting": "[2]", "value": "inactive"}]}
{"smiles": "CC(C)C[C@H](NC(=O)[C@H](Cc1ccc(OP(=O)(O)O)cc1)NC(=O)c1ccc(C#N)cc1)C(=O)NCc1ccncc1", "values": [{"measurement": "pIC50", "setting": "[1]", "value": 3.40}, {"measurement": "pIC50", "setting": "[2]", "value": 3.91}]}
